Results reported in paper PMC12663734, “Sulfonamine-containing aurone derivatives act as inhibitors of intercellular movement of potato virus Y” (iScience, 2025).
Converted amounts (≈) assume the structure as drawn.

Assays:
[1] = molecular target: T1, PVY CP (Potato virus Y, UniProt P18247); assay: biochemical; type: binding
T1 construct: 6xHis tag (within the N-terminal pET-32a(+) fusion leader; the Trx and S-tag parts are inferred from the vector and the ~50 kDa band) (N, cleaved yes); made in house; host or cells: Escherichia coli BL21 (DE3) pLysS

[2] = molecular target: T2, PVY CP^P154A (Potato virus Y, UniProt P18247, P2950A); assay: MST binding to mutant PVY CP^P154A
T2 construct: 6xHis tag (within the N-terminal pET-32a(+) fusion leader; the Trx and S-tag parts are inferred from the vector and the ~50 kDa band) (N, cleaved yes); made in house; host or cells: Escherichia coli BL21 (DE3) pLysS
T2 sequence (P18247 2797-3063 P2950A): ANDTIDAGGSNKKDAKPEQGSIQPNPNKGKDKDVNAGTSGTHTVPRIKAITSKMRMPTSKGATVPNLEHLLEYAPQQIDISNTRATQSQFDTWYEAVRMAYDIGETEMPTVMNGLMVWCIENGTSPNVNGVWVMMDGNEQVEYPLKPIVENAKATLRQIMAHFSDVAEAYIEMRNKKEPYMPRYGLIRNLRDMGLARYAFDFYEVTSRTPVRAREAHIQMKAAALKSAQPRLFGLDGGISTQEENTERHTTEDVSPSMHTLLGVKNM

[3] = test system: PVY-GFP; assay: Systemic infection of PVY-GFP in N. benthamiana (GFP fluorescence, RT-qPCR); type: in vivo, potato virus Y; conditions: 500 μg/mL, seven dpi
Experimental: To investigate the effect of compound D13 on PVY system infection, we inoculated Nicotiana benthamiana (N. benthamiana) leaves with Agrobacterium carrying the wild-type PVY-GFP. After 24 h, the infiltrated leaves were treated with dimethyl sulfoxide (DMSO) as the negative control group and 500 μg/mL D13 as the treatment group. […] To further confirm reproducibility, an additional independent biological replicate (Figure S4) was uploaded, and the observed trend is consistent with the primary dataset.
Wild-type or mutant viral plasmids were introduced into agrobacterium tumefaciens strain GV3101. Bacterial cultures were grown overnight at 28°C with shaking at 220 rpm, harvested by centrifugation at 8 minutes when OD600 reached 0.6–0.8, and the supernatant was discarded. […] At 7 dpi, GFP fluorescence in leaves was visualized and photographed under 365 nm excitation using a LUYOR handheld UV lamp (LUYOR-3415RG, Luyor Instrument, Shanghai, China). […]
The samples of N. benthamiana infected with Agrobacterium were taken out from the -80°C freezer, small steel beads were added, and they were ground into fine powder with liquid nitrogen to ensure that the cells were completely broken and the nucleic acid components in the cells were released. […] The primers used is recorded in Supporting Information.

[4] = test system: PVY; assay: Anti-PVY curative activity, half-leaf method; conditions: Potato virus Y, in Chenopodium amaranticolor, 120 h, read-out: Curative effect (%)
Experimental: (§1) Owing to its non-host resistance to PVY, Chenopodium amaranticolor develops a hypersensitive response (HR) within 48–72 hours post-inoculation, producing sharply delimited chlorotic or necrotic local lesions on the inoculated leaves. The number of lesions correlates linearly and positively with virus titre, thereby serving as a quantitative indicator of viral virulence and of the inactivating efficacy of test compounds. The PVY viral extract was rubbed onto the surface of Nicotiana tabacum K326 leaves. After the characteristic symptoms of leaf wrinkling and inward curling appeared, the leaves were harvested and stored at -80°C, then purified according to previously reported methods.[50]^,[51]^,[52] Host leaves were ground to a fine powder in liquid nitrogen, followed by homogenization on ice in 0.5 M phosphate buffer. An equal volume of chloroform:n-butanol (1:1, v/v) corresponding to 10% of the total buffer volume was added, and the mixture was further homogenized on ice. After centrifugation at 10,000g for 20 minutes (4°C), the supernatant was collected as the crude PVY extract. Using 4–5-leaf-stage Chenopodium amaranticolor maintained under optimal growth conditions, a bioassay was conducted with two plants per treatment to systematically evaluate the curative, protective, and inactivating efficacy of the target compound against PVY.[53] […] Each compound was evaluated in three replicates, and the average value was calculated.
Chenopodium amaranticolor was selected as the dead spot host. Excess leaves were first trimmed off, and a uniform layer of carborundum was applied to the leaf surface. The leaves were then inoculated by rubbing with a 1200-fold diluted virus solution. After more than an hour, the carborundum on the leaf surface was washed off with running water, and a 500 μg/mL drug solution was prepared. […] The treated plants were cultivated in a greenhouse for observation, and the number of dead spots on the leaves was counted after approximately 5 days.

[5] = test system: PVY; assay: Anti-PVY protective activity, half-leaf method; conditions: Potato virus Y, in Chenopodium amaranticolor, 120 h, read-out: Protective effect (%)
Experimental: as §1
In contrast to the antiviral therapeutic activity, the leaves were first treated with the drug solution. A 500 μg/mL drug solution was applied to the right side of the leaves, with the left side serving as a control and treated with a 1% Tween 80 solution. After the leaves had dried under natural conditions, they were placed in a greenhouse for 24 hours before inoculation by rubbing with carborundum, following the same procedures as those for curative activity. After treatment, the plants were maintained in a greenhouse, and the number of local lesions on the inoculated leaves was recorded approximately 5 days.

[6] = test system: PVY; assay: Anti-PVY inactivating activity, half-leaf method; conditions: Potato virus Y, in Chenopodium amaranticolor
Experimental: as §1
Two different dilutions of the virus solution (600-fold and 1200-fold) were prepared, along with a 1000 μg/mL drug solution. The drug solution was mixed with the 600-fold diluted virus solution on ice and incubated for 30 minutes. During the incubation period, the left side of the leaves was treated with a 1200-fold diluted virus solution. After the incubation was completed, the mixed system of drug and virus is inoculated on the right side of the leaf. After waiting for the infection to be completed, the carborundum on the leaf surface was washed off with running water, and the plants were then cultivated in a greenhouse. The number of dead spots on the leaves was counted after approximately 5 days.

T1 sequence (P18247 2797-3063): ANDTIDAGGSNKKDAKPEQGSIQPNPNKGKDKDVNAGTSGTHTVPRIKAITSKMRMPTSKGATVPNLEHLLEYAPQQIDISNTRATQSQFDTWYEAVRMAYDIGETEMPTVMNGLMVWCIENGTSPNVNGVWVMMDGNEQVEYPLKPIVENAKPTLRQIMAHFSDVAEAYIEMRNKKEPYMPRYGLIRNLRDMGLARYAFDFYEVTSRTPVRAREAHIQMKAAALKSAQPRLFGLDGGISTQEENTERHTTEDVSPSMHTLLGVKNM

COc1ccc(/C=C2\Oc3cc(OCC(=O)NS(=O)(=O)c4ccc(Br)cc4)ccc3C2=O)cc1 [D13, (Z)-N-((4-bromophenyl)sulfonyl)-2-((2-(4-methoxybenzylidene)-3-oxo-2,3-dihydrobenzofuran-6-yl)oxy)acetamide]
Kd [1]: 16 µM
Kd [2]: 284 µM
accumulation level of PVY RNA in systemic leaves vs DMSO control (100%) ([3]; RT-qPCR): 39.8%
green fluorescence in stems and young top leaves ([3]; UV illumination): almost unobservable
pest or weed control at 500 µg/mL [4]: 53.2 ± 1.6%
pest or weed control at 500 µg/mL [5]: 47.7 ± 1.4%
pest or weed control at 500 µg/mL ([6]; 120 h, read-out: Inactivating effect (%), 500 μg/mL, host Chenopodium amaranticolor, average of three replicates): 60 to 80%
EC50 ([6]; read-out: Inactivating effect EC50): 79.5 ± 3.3 µg/mL (≈ 146 µM)
